Measured values: patent US12534452B2, “N-(1H-imidazol-2-yl)benzamide compound and pharmaceutical composition comprising the same as active ingredient” (KAINOS MEDICINE, INC., priority 2019, dated 2026)

molecular target: IRAK4 (Homo sapiens (Human), UniProt Q9NWZ3); test: In vitro IRAK4 phosphorylation activity assay; format: biochemical; settings: [γ-33P]-ATP, myelin basic protein substrate, 40 minutes at room temperature; categories
Protocol: In vitro IRAK4 analysis was performed using N-(1H-imidazol-2-yl)benzamide compounds according to the present invention. All compounds were prepared by dissolving in DMSO. N-(1H-imidazol-2-yl)benzamide compound according to the present invention and other elements for the reaction were added to an assay well. In the standard Kinase Profiler service the preincubation step between the N-(1H-imidazol-2-yl)benzamide compound and kinase was not performed before the reaction.
To the positive control well, all reactants except for the N-(1H-imidazol-2-yl)benzamide compound according to the present invention were added, and DMSO was added to remove the solvent effect. A known control inhibitor having the following structure was added to the blank wells to inhibit kinase activity and establish a base-line.
IRAK4 was incubated with 8 mM MOPS pH 7.0, 0.2 mM EDTA, 0.33 mg/mL myelin basic protein, 10 mM magnesium acetate and [γ-33P]-ATP (specific activity approx. 500 cpm/pmol, concentration as required). The reaction was initiated by the addition of the MgATP mix. After incubation for 40 minutes at room temperature, the reaction was stopped by the addition of 3% phosphoric acid solution. 10 μL of the reaction was then spotted onto a P30 filtermat and washed three times for 5 minutes in 75 mM phosphoric acid and once in methanol prior to drying and scintillation counting.
The results are shown in Table 26 below, where the phosphorylation activity of IC50 values for IRAK4 is shown in categories (A: <50 nM, B: 50-100 nM, C: >100 nM).

IRAK4, sequence (Q9NWZ3 whole entry): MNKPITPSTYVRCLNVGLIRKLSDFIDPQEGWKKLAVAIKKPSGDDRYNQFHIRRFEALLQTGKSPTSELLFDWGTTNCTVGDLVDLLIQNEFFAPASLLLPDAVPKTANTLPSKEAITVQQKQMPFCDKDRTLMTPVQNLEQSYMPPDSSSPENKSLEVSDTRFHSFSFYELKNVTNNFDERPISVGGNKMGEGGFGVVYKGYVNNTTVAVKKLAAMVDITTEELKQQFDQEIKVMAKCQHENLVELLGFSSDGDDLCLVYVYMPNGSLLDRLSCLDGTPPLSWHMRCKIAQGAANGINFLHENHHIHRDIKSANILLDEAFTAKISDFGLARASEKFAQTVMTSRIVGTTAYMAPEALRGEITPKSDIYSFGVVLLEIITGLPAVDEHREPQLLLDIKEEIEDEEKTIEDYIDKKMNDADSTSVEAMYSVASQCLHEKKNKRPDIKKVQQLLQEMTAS

SMILES | IC50 [nM]
CN(C(=O)CCCc1cn(-c2ccccc2)c(NC(=O)c2cccc(-c3cnn(C)c3F)c2)n1)C1CC1 [Example 233, N-(4-(4-(cyclopropyl(methyl)amino)-4-oxobutyl)-1-phenyl-1H-imidazol-2-yl)-3-(5-fluoro-1-methyl-1H-pyrazol-4-yl)benzamide] | 50 to 100
C[C@H]1CCCCN1C(=O)CCCCc1cn(-c2ccccc2)c(NC(=O)c2cccc(-c3cn[nH]c3)c2)n1 [Example 82, (S)—N-(4-(5-(2-methylpiperidin-1-yl)-5-oxopentyl)-1-phenyl-1H-imidazol-2-yl)-3-(1H-pyrazol-4-yl)benzamide] | 50 to 100
O=C(Nc1nc(CCC(=O)N2CC[C@H](C(=O)O)C2)cn1-c1ccccc1)c1cccc(-c2cn[nH]c2)c1 [Example 26, (S)-1-(3-(2-(3-(1H-pyrazol-4-yl)benzamido)-1-phenyl-1H-imidazol-4-yl)propanoyl)pyrrolidine-3-carboxylic acid] | > 100
CNC(=O)Cc1cn(-c2ccccc2)c(NC(=O)c2cccnc2)n1 [Example 51, N-(4-(2-(methylamino)-2-oxoethyl)-1-phenyl-1H-imidazol-2-yl)nicotinamide] | > 100
Cn1ncc2cc(-c3cccc(C(=O)Nc4nc(CCCCCCN5CCCCC5)cn4-c4ccccc4)c3)ccc21 [Example 263, 3-(1-methyl-1H-indazol-5-yl)-N-(1-phenyl-4-(6-(piperidin-1-yl)hexyl)-1H-imidazol-2-yl)benzamide] | 50 to 100
O=C(CCc1cn(-c2ccncc2)c(NC(=O)c2cccc(-c3cn[nH]c3)c2)n1)Nc1ccccc1 [Example 303, N-(4-(3-oxo-3-(phenylamino)propyl)-1-(pyridin-4-yl)-1H-imidazol-2-yl)-3-(1H-pyrazol-4-yl)benzamide] | > 100
COC[C@H]1CCCN1C(=O)CCc1cn(-c2ccccc2)c(NC(=O)c2cccc(-c3cn[nH]c3)c2)n1 [Example 20, (R)—N-(4-(3-(2-(methoxymethyl)pyrrolidin-1-yl)-3-oxopropyl)-1-phenyl-1H-imidazol-2-yl)-3-(1H-pyrazol-4-yl)benzamide] | > 100
CN1CCN(C(=O)CCCc2cn(-c3ccccc3)c(NC(=O)c3cccc(-c4ccc5scnc5c4)c3)n2)CC1 [Example 284, 3-(benzo[d]thiazol-5-yl)-N-(4-(4-(4-methylpiperazin-1-yl)-4-oxobutyl)-1-phenyl-1H-imidazol-2-yl)benzamide] | > 100
CN(C)C1CCN(C(=O)CCCCCc2cn(-c3ccccc3)c(NC(=O)c3cccc(-c4ccc5scnc5c4)c3)n2)CC1 [Example 291, 3-(benzo[d]thiazol-5-yl)-N-(4-(6-(4-(dimethylamino)piperidin-1-yl)-6-oxohexyl)-1-phenyl-1H-imidazol-2-yl)benzamide] | > 100
O=C(CCCCc1cn(-c2ccccc2)c(NC(=O)c2cccc(-c3cn[nH]c3)c2)n1)Nc1ccccc1 [Example 76, N-(4-(5-oxo-5-(phenylamino)pentyl)-1-phenyl-1H-imidazol-2-yl)-3-(1H-pyrazol-4-yl)benzamide] | < 50
Cn1cc(-c2cccc(C(=O)Nc3nc(CCCC(=O)O)cn3-c3ccccc3)c2)cn1 [Example 140, 4-(2-(3-(1-methyl-1H-pyrazol-4-yl)benzamido)-1-phenyl-1H-imidazol-4-yl)butanoic acid] | 50 to 100
Cn1cc(-c2cccc(C(=O)Nc3nc(CCCC(=O)N[C@H]4CC[C@H](N)CC4)cn3-c3ccccc3)c2)cn1 [Example 215, N-(4-(4-(((1R,4R)-4-aminocyclohexyl)amino)-4-oxobutyl)-1-phenyl-1H-imidazol-2-yl)-3-(1-methyl-1H-pyrazol-4-yl)benzamide] | 50 to 100

Now from value to molecule:

IC50 [nM] | SMILES
< 50 | Cn1cc(-c2cccc(C(=O)Nc3nc(CCCC(=O)N4CCN(c5ccccc5)CC4)cn3-c3ccccc3)c2)cn1 [Example 188, 3-(1-methyl-1H-pyrazol-4-yl)-N-(4-(4-oxo-4-(4-phenylpiperazin-1-yl)butyl)-1-phenyl-1H-imidazol-2-yl)benzamide]
< 50 | Cn1cc(-c2cccc(C(=O)Nc3nc(CCCCC(=O)N4CCNCC4)cn3-c3ccccc3)c2)cn1 [Example 204, 3-(1-methyl-1H-pyrazol-4-yl)-N-(4-(5-oxo-5-(piperazin-1-yl)pentyl)-1-phenyl-1H-imidazol-2-yl)benzamide]
< 50 | CC1(C)CCCN(C(=O)CCc2cn(-c3ccccc3)c(NC(=O)c3cccc(-c4cn[nH]c4)c3)n2)C1 [Example 34, N-(4-(3-(3,3-dimethylpiperidin-1-yl)-3-oxopropyl)-1-phenyl-1H-imidazol-2-yl)-3-(1H-pyrazol-4-yl)benzamide]
< 50 | Cn1cc(-c2cccc(C(=O)Nc3nc(CCCC(=O)N4CCC(O)CC4)cn3-c3ccccc3)c2)cn1 [Example 169, N-(4-(4-(4-hydroxypiperidin-1-yl)-4-oxobutyl)-1-phenyl-1H-imidazol-2-yl)-3-(1-methyl-1H-pyrazol-4-yl)benzamide]
< 50 | CN1CCN(C(=O)CCCc2cn(-c3ccccc3)c(NC(=O)c3cccc(-c4ccc5[nH]ncc5c4)c3)n2)CC1 [Example 247, 3-(1H-indazol-5-yl)-N-(4-(4-(4-methylpiperazin-1-yl)-4-oxobutyl)-1-phenyl-1H-imidazol-2-yl)benzamide]
< 50 | Cn1cc(-c2cccc(C(=O)Nc3nc(CCCC(=O)NCCC(C)(C)O)cn3-c3ccccc3)c2)cn1 [Example 171, N-(4-(4-((3-hydroxy-3-methylbutyl)amino)-4-oxobutyl)-1-phenyl-1H-imidazol-2-yl)-3-(1-methyl-1H-pyrazol-4-yl)benzamide]
< 50 | O=C(Nc1nc(CCC(=O)N2CCCC2)cn1-c1ccccc1)c1cccc(-c2cn[nH]c2)c1 [Example 28, N-(4-(3-oxo-3-(pyrrolidin-1-yl)propyl)-1-phenyl-1H-imidazol-2-yl)-3-(1H-pyrazol-4-yl)benzamide]
< 50 | O=C(Nc1nc(CCCCN2CCCCC2)cn1-c1ccccc1)c1cccc(-c2cccc3[nH]ncc23)c1 [Example 257, 3-(1H-indazol-4-yl)-N-(1-phenyl-4-(4-(piperidin-1-yl)butyl)-1H-imidazol-2-yl)benzamide]
< 50 | C[C@@H]1CC[C@@H](C)N1C(=O)CCc1cn(-c2ccccc2)c(NC(=O)c2cccc(-c3cn[nH]c3)c2)n1 [Example 29, N-(4-(3-((2R,5R)-2,5-dimethylpyrrolidin-1-yl)-3-oxopropyl)-1-phenyl-1H-imidazol-2-yl)-3-(1H-pyrazol-4-yl)benzamide]
< 50 | Nc1ccc(-c2cccc(C(=O)Nc3nc(CCCCCCN4CCCC4=O)cn3-c3ccccc3)c2)cn1 [Example 276, 3-(6-aminopyridin-3-yl)-N-(4-(6-(2-oxopyrrolidin-1-yl)hexyl)-1-phenyl-1H-imidazol-2-yl)benzamide]
< 50 | Cn1cc(-c2cccc(C(=O)Nc3nc(CCCCNC(=O)C4CC4)cn3-c3ccccc3)c2)cn1 [Example 227, N-(4-(4-(cyclopropanecarboxamido)butyl)-1-phenyl-1H-imidazol-2-yl)-3-(1-methyl-1H-pyrazol-4-yl)benzamide]
< 50 | COC(=O)CCCc1cn(-c2ccccc2)c(NC(=O)c2cccc(-c3cn[nH]c3)c2)n1 [Example 58, methyl 4-(2-(3-(1H-pyrazol-4-yl)benzamido)-1-phenyl-1H-imidazol-4-yl)butanoate]
< 50 | CNC(=O)CCCc1cn(-c2ccccc2)c(NC(=O)c2cccc(-c3cn[nH]c3)c2)n1 [Example 60, N-(4-(4-(methylamino)-4-oxobutyl)-1-phenyl-1H-imidazol-2-yl)-3-(1H-pyrazol-4-yl)benzamide]
< 50 | CN1CCN(C(=O)CCCc2cn(-c3ccc(F)cc3)c(NC(=O)c3cccc(-c4cnn(C)c4)c3)n2)CC1 [Example 299, N-(1-(4-fluorophenyl)-4-(4-(4-methylpiperazin-1-yl)-4-oxobutyl)-1H-imidazol-2-yl)-3-(1-methyl-1H-pyrazol-4-yl)benzamide]
< 50 | Cn1cc(-c2cccc(C(=O)Nc3nc(CCCC(=O)NC4CC4)cn3-c3ccc(F)cc3)c2)cn1 [Example 300, N-(4-(4-(cyclopropylamino)-4-oxobutyl)-1-(4-fluorophenyl)-1H-imidazol-2-yl)-3-(1-methyl-1H-pyrazol-4-yl)benzamide]
< 50 | Cn1cc(-c2cccc(C(=O)Nc3nc(CCCCC(=O)NC4CCOCC4)cn3-c3ccccc3)c2)cn1 [Example 197, 3-(1-methyl-1H-pyrazol-4-yl)-N-(4-(5-oxo-5-((tetrahydro-2H-pyran-4-yl)amino)pentyl)-1-phenyl-1H-imidazol-2-yl)benzamide]
< 50 | O=C(CCCCCc1cn(-c2ccccc2)c(NC(=O)c2cccc(-c3cn[nH]c3)c2)n1)Nc1ccccc1 [Example 90, N-(4-(6-oxo-6-(phenylamino)hexyl)-1-phenyl-1H-imidazol-2-yl)-3-(1H-pyrazol-4-yl)benzamide]
< 50 | COC[C@H]1CCCN1NC(=O)CCCCCc1cn(-c2ccccc2)c(NC(=O)c2cccc(-c3cn[nH]c3)c2)n1 [Example 99, (R)—N-(4-(6-((2-(methoxymethyl)pyrrolidin-1-yl)amino)-6-oxohexyl)-1-phenyl-1H-imidazol-2-yl)-3-(1H-pyrazol-4-yl)benzamide]
